The test system of one data set is NCI-H292 cells. In words: Clonogenic survival assay, NCI-H292 NSCLC cells. Type of data set: cell-based, human. The settings on record: for effect of the agent on ascorbate toxicity (clonogenic survival): agent added before and/or during 1 h ascorbate exposure; for effect of the intracellular agent on ascorbate toxicity (clonogenic survival): 3 h pre-incubation, washed prior to ascorbate ('intracellular'), 200 μM DFO/1 mM DTPA, 1 mM EDTA or 250 μM FAS. The procedure:
(§1) Treatment conditions for individual experiments are as described in the figure legends and summarized in the Supplemental Experimental Procedures.
(§2) 1-2×10^5 cells were plated in 60 mm cell culture dishes and grown in their respective media for 48 h before exposed to experimental conditions. […] For AdGPx1 experiments, cells were supplemented with 50 nM sodium selenite following transduction and throughout clonogenic growth. […] After treatment, cells were washed with PBS and clonogenic assay was completed in their respective media. Briefly, floating and attached cells were collected and total cells per plate were counted. An experimentally derived number of cells were plated into each well of a 6-well cell culture plate in their respective media. For HEL92.1.7 suspension cells, cells were seeded in a top layer of 0.4% (w/v) agarose to allow for quantifiable colony formation. […] Normalized survival fractions were calculated by comparing plating efficiencies of each treatment group against the control group within a given experiment.

For a further data set, the system named is H1299 cells. Briefly: Clonogenic survival assay, H1299 NSCLC cells. The settings on record: agent added before and/or during 1 h ascorbate exposure. Type of data set: cell-based, human. The protocol:
as §1, §2

A further data set concerns cancer cells. The settings on record: following exposure.
The subject of data set [1] is human non-small cell lung cancer cells. In words: Clonogenic cell killing of lung cancer cells by ascorbate with chelators (cell line not given). Type of data set: cell-based.
The subject of another data set is NHAs. In words: Cellular labile iron pool (Calcein-AM flow cytometry), NHAs. Type of data set: cell-based, human. The settings on record: 100 μM or 250 μM FAS for 3 h. The procedure:
The labile iron pool (LIP) was visualized using the fluorescent dye Calcein-AM as previously described (Epsztejn et al., 1997) with modifications. After labeling, samples were divided into two flow cytometry sample tubes, to which 100 μM 2′,2′-bipyridyl (BIP) was added to one tube and analyzed by flow cytometry. BIP tubes were incubated for at least 15 minutes before analysis to allow for full chelation of intracellular labile iron. The LIP (A.U.)=MFIBIP−MFINoBIP was normalized against the control samples to calculate the relative labile iron pool.
The labile iron pool (LIP) was visualized using the fluorescent dye Calcein-AM as previously described with modifications (Epsztejn et al., 1997). Briefly, after sample treatment, cells were trypsinized, spun at 1,200 rpm for 5 min, and resuspended at approximately 1×10^6 cells mL-1 in 500 nM Calcein-AM in PBS. Samples were incubated for 15 min at 4% O2 in a humidity controlled environment (37° C., 5% CO2). Subsequently, samples were pelleted, washed in PBS, and resuspended in 1 mL PBS before dividing each sample into two flow cytometry sample tubes, to which 100 μM 2′,2′-bipyridyl (BIP) was added to one tube. Samples were kept at room temperature and analyzed on a LSR II Flow Cytometer (BD Biosciences; λex=488 nm, λem=515/20 nm). […]

The next data set relates to NHA. The settings on record: FAS 3 h, washed, then ascorbate 1 h. The procedure: After treatment, cells were washed with PBS and clonogenic assay was completed in their respective media as previously described (Fath et al., 2011). Treatment conditions for individual experiments are as described in the figure legends and summarized in the Supplemental Experimental Procedures.
as §2, with “formation. After sufficient time (7-12 days, cell type-dependent), cells were fixed in 70% ethanol and stained with a Brilliant Blue methanol solution.” for “formation.”

The next data set deals with U87 cells. Briefly: Clonogenic survival assay, U87 GBM cells. Type of data set: cell-based, human. The settings on record: agent added before and/or during 1 h ascorbate exposure. The procedure:
as §1, §2

In a further data set the test system is U118 cells. In words: Clonogenic survival assay, U118 GBM cells. The settings on record: agent added before and/or during 1 h ascorbate exposure. Format: cell-based, human. The protocol:
as §1, §2

The text below walks through data of patent US10052304B2, “Compositions and methods for cancer therapy” (UNIVERSITY OF IOWA RESEARCH FOUNDATION, priority 2015, dated 2018).

In the case of `O=CC[C@@H](O)[C@H](O)[C@H](O)CO` [2-DG, 2-deoxy-D-glucose], the “effect of the agent on ascorbate toxicity (clonogenic survival)” value (from here on “effect of the agent”) in the data set on NCI-H292 cells and in the data set on H1299 cells was “did not suppress ascorbate toxicity” each time.

In the case of `O=C(O)CN(CCN(CC(=O)O)CC(=O)O)CC(=O)O` [EDTA, ethylenediaminetetraacetic acid], in the data set on cancer cells, the “cellular retention of 14C labeled EDTA” value is reported as “retained with cancer cells following exposure”. Besides, the “effect of the intracellular agent on ascorbate toxicity (clonogenic survival)” value in the data set with NCI-H292 cells is given as “enhanced ascorbate toxicity”. Also, the “effect of EDTA on cytotoxicity of pharmacological ascorbate” value in data set [1] (EDTA 1 mM and greater, cell culture) was “significantly enhance the cytotoxicity of pharmacological ascorbate”. Moreover, in data set [1] (EDTA pretreatment followed by washing out), the “enhanced ascorbate toxicity after EDTA pretreatment and wash-out” value is recorded as “sufficient to get enhanced toxicity”. In data set [1] (high dose EDTA + pharmacological ascorbate + standard-of-care chemotherapy vs standard of care alone, two NSCLC cell lines), the clonogenic cell survival entry is “decreases clonogenic cell survival”. The “effect of iron chelators on ascorbate toxicity / response to therapy (FIG. 8)” value in data set [1] (lung cancer cells treated with ascorbate and iron chelators) was “enhance responses to cancer therapy”.

Take `O=S(=O)([O-])[O-].O=S(=O)([O-])[O-].[Fe+2].[NH4+].[NH4+]` [FAS, ferrous ammonium sulfate]: the “effect of the intracellular agent on ascorbate toxicity (clonogenic survival)” value in the data set on NCI-H292 cells was “sensitized cancer cells to ascorbate”. Also, in the data set on NHAs, the “cellular LIP after FAS” value was “increases the LIP”. Besides, the “effect of the agent” value in the data set on NHA is on record as “sensitizes NHAs to ascorbate toxicity”.

B1: PEG-catalase: polyethylene glycol conjugated catalase which converts H2O2 into H2O and O2 (conjugate, UniProt P00432 2-527, looked up)
Catalase: ADNRDPASDQMKHWKEQRAAQKPDVLTTGGGNPVGDKLNSLTVGPRGPLLVQDVVFTDEMAHFDRERIPERVVHAKGAGAFGYFEVTHDITRYSKAKVFEHIGKRTPIAVRFSTVAGESGSADTVRDPRGFAVKFYTEDGNWDLVGNNTPIFFIRDALLFPSFIHSQKRNPQTHLKDPDMVWDFWSLRPESLHQVSFLFSDRGIPDGHRHMNGYGSHTFKLVNANGEAVYCKFHYKTDQGIKNLSVEDAARLAHEDPDYGLRDLFNAIATGNYPSWTLYIQVMTFSEAEIFPFNPFDLTKVWPHGDYPLIPVGKLVLNRNPVNYFAEVEQLAFDPSNMPPGIEPSPDKMLQGRLFAYPDTHRHRLGPNYLQIPVNCPYRARVANYQRDGPMCMMDNQGGAPNYYPNSFSAPEHQPSALEHRTHFSGDVQRFNSANDDNVTQVRTFYLKVLNEEQRKRLCENIAGHLKDAQLFIQKKAVKNFSDVHPEYGSRIQALLDKYNEEKPKNAVHTYVQHGSHLSAREKANL
modifications: PEG conjugate
notes: polyethylene glycol conjugated catalase which converts H2O2 into H2O and O2
In the case of B1, the “effect of the agent” value in the data set on NCI-H292 cells was “inhibited cancer cell killing by ascorbate”.

B2: catalase: exogenous bovine catalase, 50 U mL^−1, added with ascorbate (protein, UniProt P00432 2-527, looked up)
Catalase: ADNRDPASDQMKHWKEQRAAQKPDVLTTGGGNPVGDKLNSLTVGPRGPLLVQDVVFTDEMAHFDRERIPERVVHAKGAGAFGYFEVTHDITRYSKAKVFEHIGKRTPIAVRFSTVAGESGSADTVRDPRGFAVKFYTEDGNWDLVGNNTPIFFIRDALLFPSFIHSQKRNPQTHLKDPDMVWDFWSLRPESLHQVSFLFSDRGIPDGHRHMNGYGSHTFKLVNANGEAVYCKFHYKTDQGIKNLSVEDAARLAHEDPDYGLRDLFNAIATGNYPSWTLYIQVMTFSEAEIFPFNPFDLTKVWPHGDYPLIPVGKLVLNRNPVNYFAEVEQLAFDPSNMPPGIEPSPDKMLQGRLFAYPDTHRHRLGPNYLQIPVNCPYRARVANYQRDGPMCMMDNQGGAPNYYPNSFSAPEHQPSALEHRTHFSGDVQRFNSANDDNVTQVRTFYLKVLNEEQRKRLCENIAGHLKDAQLFIQKKAVKNFSDVHPEYGSRIQALLDKYNEEKPKNAVHTYVQHGSHLSAREKANL
For B2, the “effect of the agent” value with U87 cells, in the data set with NCI-H292 cells, in the data set with H1299 cells and in the data set on U118 cells was “inhibited” throughout.
